In patent publication US20090123507A1, “Metal Oxide Nanoparticles Coated With Specific N-Acylaminomethylene Phosphonates” (priority 2005, published 2009):

Legend:
E. coli (ATCC 10536) = assay: European Standard Assay method EN 1040, antimicrobial bioassay; type: cell-based; details: logarithmic scale (5 = factor of 100000); for Bioassay data E. coli 5 min: 5 min incubation; for Bioassay data E. coli 30 min: 30 min incubation
Procedure: (§1) The titanium dioxide particles coated with the appropriate phosphonates were subsequently assayed according the European Standard Assay method EN 1040 against two representative microbes:
(§2) S. aureaus (ATCC 6538) and E. coli (ATCC 10536).
(§3) Both microbes were incubated with the coated nanoparticles together with their corresponding free phosphonates within the same apparent concentrations for 5 and 30 minutes, respectively.
(§4) The data are given in a logarithmic scale which means that the number 5 indicates an increase of activity by a factor of 100000.

S. aureus (ATCC 6538) = assay: as above; type: cell-based; details: logarithmic scale (5 = factor of 100000); for Bioassay data S. aureus 5 min: 5 min incubation; for Bioassay data S. aureus 30 min: 30 min incubation
Procedure: as §1, §2, §3, §4

CCOP(=O)(CCNC(=O)CCC(=O)O)OCC [Compound M]
<1: Bioassay data E. coli 5 min (E. coli (ATCC 10536)) | Bioassay data E. coli 30 min (E. coli (ATCC 10536)) | Bioassay data S. aureus 5 min (S. aureus (ATCC 6538)) | Bioassay data S. aureus 30 min (S. aureus (ATCC 6538))

CCOP(=O)(CCCCNC(=O)OCc1ccccc1)OCC [Compound N]
<1: Bioassay data E. coli 5 min (E. coli (ATCC 10536)) | Bioassay data E. coli 30 min (E. coli (ATCC 10536)) | Bioassay data S. aureus 5 min (S. aureus (ATCC 6538)) | Bioassay data S. aureus 30 min (S. aureus (ATCC 6538))

CCOP(=O)(CCC#N)OCC [Compound A]
<1: Bioassay data E. coli 5 min (E. coli (ATCC 10536)) | Bioassay data E. coli 30 min (E. coli (ATCC 10536)) | Bioassay data S. aureus 5 min (S. aureus (ATCC 6538)) | Bioassay data S. aureus 30 min (S. aureus (ATCC 6538))

CCCCCCCC/C=C/CCCCCCCC(=O)NCCP(=O)(OCC)OCC [Compound K]
<1: Bioassay data E. coli 5 min (E. coli (ATCC 10536)) | Bioassay data E. coli 30 min (E. coli (ATCC 10536)) | Bioassay data S. aureus 5 min (S. aureus (ATCC 6538)) | Bioassay data S. aureus 30 min (S. aureus (ATCC 6538))

CCOP(=O)(CCNC(=O)CCCCCN=[N+]=[N-])OCC [Compound L]
<1: Bioassay data E. coli 5 min (E. coli (ATCC 10536)) | Bioassay data E. coli 30 min (E. coli (ATCC 10536)) | Bioassay data S. aureus 5 min (S. aureus (ATCC 6538)) | Bioassay data S. aureus 30 min (S. aureus (ATCC 6538))

CCCCCCCCCCCCCCCCCC(=O)NCCP(=O)(OCC)OCC [Compound J]
<1: Bioassay data E. coli 5 min (E. coli (ATCC 10536)) | Bioassay data E. coli 30 min (E. coli (ATCC 10536)) | Bioassay data S. aureus 5 min (S. aureus (ATCC 6538)) | Bioassay data S. aureus 30 min (S. aureus (ATCC 6538))
